Reference: patent US9963464B2, “Macrocyclic compounds” (Bayer Pharma Aktiengesellschaft, priority 2014, dated 2018)
Like-named read-outs stand apart in the source and are kept apart here.

Experiments:
B16F10 cells = experiment: Proliferation assay B16F10; assay type: cell-based, mouse; settings: 4 days, crystal violet, read-out: Inhibition of B16F10 cell proliferation IC50
Method: Cultivated tumour cells (HeLa, human cervical tumour cells, ATCC CCL-2; NCI-H460, human non-small cell lung carcinoma cells, ATCC HTB-177; A2780, human ovarian carcinoma cells, ECACC #93112519; DU 145, hormone-independent human prostate carcinoma cells, ATCC HTB-81; HeLa-MaTu-ADR, multidrug-resistant human cervical carcinoma cells, EPO-GmbH Berlin; Caco-2, human colorectal carcinoma cells, ATCC HTB-37; B16F10, mouse melanoma cells, ATCC CRL-6475) were plated at a density of 5,000 cells/well (DU145, HeLa-MaTu-ADR), 3,000 cells/well (NCI-H460, HeLa), 2,500 cells/well (A2780), 1,500 cells/well (Caco-2), or 1,000 cells/well (B16F10) in a 96-well multititer plate in 200 μL of their respective growth medium supplemented 10% fetal calf serum. After 24 hours, the cells of one plate (zero-point plate) were stained with crystal violet (see below), while the medium of the other plates was replaced by fresh culture medium (200 μl), to which the test substances were added in various concentrations (0 μM, as well as in the range of 0.001-10 μM). The cells were incubated for 4 days in the presence of test substances. Cell proliferation was determined by staining the cells with crystal violet: the cells were fixed by adding 20 μl/measuring point of an 11% glutaric aldehyde solution for 15 minutes at room temperature. After three washing cycles of the fixed cells with water, the plates were dried at room temperature. The cells were stained by adding 100 μl/measuring point of a 0.1% crystal violet solution (pH 3.0). After three washing cycles of the stained cells with water, the plates were dried at room temperature. The dye was dissolved by adding 100 μl/measuring point of a 10% acetic acid solution. The extinction was determined by photometry at a wavelength of 595 nm. The change of cell number, in percent, was calculated by normalization of the measured values to the extinction values of the zero-point plate (=0%) and the extinction of the untreated (0 μm) cells (=100%). The IC50 values (inhibitory concentration at 50% of maximal effect) were determined by means of a 4 parameter fit. Non-adherent MOLM-13 human acute myeloid leukemia cells (DSMZ ACC 554) were seeded at a density of 5,000 cells/well in a 96-well multititer plate in 100 μL of growth medium supplemented 10% fetal calf serum. After 24 hours, cell viability of one plate (zero-point plate) was determined with the Cell Titre-Glo Luminescent Cell Viability Assay (Promega), while 50 μL of test compound containing medium was added to the wells of the other plates (final concentrations in the range of 0.001-1 μM and DMSO controls). Cell viability was assessed after 72-hour exposure with the Cell Titre-Glo Luminescent Cell Viability Assay (Promega). IC50 values (inhibitory concentration at 50% of maximal effect) were determined by means of a 4 parameter fit on measurement data which were normalized to vehicle (DMSO) treated cells (=100%) and measurement readings taken immediately before compound exposure (=0%).

CDK9/CycT1 = molecular target: T1, CDK9/CycT1 (Homo sapiens, UniProt P50750); experiment: CDK9/CycT1 high ATP kinase assay (TR-FRET, Method 1b); assay type: biochemical; settings: for IC50: Method 1b, 2 mM ATP; for Selectivity high ATP CDK9 over high ATP CDK2: IC50 (high ATP CDK2)/IC50 (high ATP CDK9): Methods 1b and 2b, minimal values where CDK9 IC50 is at the assay limit
T1 construct: Recombinant full-length His-tagged human CDK9 and CycT1; His; purchased Invitrogen PV4131; host or cells: insect cells
T1 sequence (P50750 whole entry): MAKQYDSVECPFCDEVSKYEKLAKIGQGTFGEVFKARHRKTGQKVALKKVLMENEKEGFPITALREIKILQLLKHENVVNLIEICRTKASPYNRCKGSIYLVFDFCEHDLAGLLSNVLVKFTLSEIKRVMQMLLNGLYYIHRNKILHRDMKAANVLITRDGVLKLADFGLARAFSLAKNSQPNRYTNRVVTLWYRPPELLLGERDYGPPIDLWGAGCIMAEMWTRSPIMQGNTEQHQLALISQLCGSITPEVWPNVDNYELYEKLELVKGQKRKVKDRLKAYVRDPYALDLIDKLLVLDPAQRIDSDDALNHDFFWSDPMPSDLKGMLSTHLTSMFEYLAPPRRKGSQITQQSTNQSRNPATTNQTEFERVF
T1 sequence (O60563 whole entry partner): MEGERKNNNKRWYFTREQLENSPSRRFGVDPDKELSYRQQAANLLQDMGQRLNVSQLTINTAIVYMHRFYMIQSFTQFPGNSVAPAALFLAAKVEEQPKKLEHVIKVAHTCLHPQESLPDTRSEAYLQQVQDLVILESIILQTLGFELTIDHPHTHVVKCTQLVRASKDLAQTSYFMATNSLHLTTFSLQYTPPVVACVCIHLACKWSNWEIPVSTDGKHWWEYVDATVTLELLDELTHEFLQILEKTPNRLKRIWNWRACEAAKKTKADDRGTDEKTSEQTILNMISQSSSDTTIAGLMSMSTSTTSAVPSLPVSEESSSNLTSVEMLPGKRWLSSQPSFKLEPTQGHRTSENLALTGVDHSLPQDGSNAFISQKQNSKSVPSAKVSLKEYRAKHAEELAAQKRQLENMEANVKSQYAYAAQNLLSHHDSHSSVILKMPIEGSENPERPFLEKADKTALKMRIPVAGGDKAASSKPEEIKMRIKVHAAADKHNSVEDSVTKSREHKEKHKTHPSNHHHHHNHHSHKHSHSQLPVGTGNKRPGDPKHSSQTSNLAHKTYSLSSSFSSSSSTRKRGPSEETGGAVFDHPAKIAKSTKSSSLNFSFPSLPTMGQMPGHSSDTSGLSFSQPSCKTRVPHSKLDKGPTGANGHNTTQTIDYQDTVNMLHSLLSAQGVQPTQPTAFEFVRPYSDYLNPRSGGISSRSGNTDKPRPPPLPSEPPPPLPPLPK
Method: 1b. CDK9/CycT1 High ATP Kinase Assay
CDK9/CycT1-inhibitory activity of compounds of the present invention at a high ATP concentration after preincubation of enzyme and test compounds was quantified employing the CDK9/CycT1 TR-FRET assay as described in the following paragraphs.
Recombinant full-length His-tagged human CDK9 and CycT1, expressed in insect cells and purified by Ni-NTA affinity chromatography, were purchase from Invitrogen (Cat. No PV4131). As substrate for the kinase reaction biotinylated peptide biotin-Ttds-YISPLKSPYKISEG (C-terminus in amid form) was used which can be purchased e.g. from the company JERINI peptide technologies (Berlin, Germany). For the assay 50 nl of a 100 fold concentrated solution of the test compound in DMSO was pipetted into a black low volume 384 well microtiter plate (Greiner Bio-One, Frickenhausen, Germany), 2 μl of a solution of CDK9/CycT1 in aqueous assay buffer [50 mM Tris/HCl pH 8.0, 10 mM MgCl2, 1.0 mM dithiothreitol, 0.1 mM sodium ortho-vanadate, 0.01% (v/v) Nonidet-P40 (Sigma)] were added and the mixture was incubated for 15 min at 22° C. to allow pre-binding of the test compounds to the enzyme before the start of the kinase reaction. […] The concentration of CDK9/CycT1 was adjusted depending of the activity of the enzyme lot and was chosen appropriate to have the assay in the linear range, typical concentrations were in the range of 0.5 μg/mL. The reaction was stopped by the addition of 5 μl of a solution of TR-FRET detection reagents (0.2 μM streptavidine-XL665 [Cisbio Bioassays, Codolet, France] and 1 nM anti-RB(pSer807/pSer811)-antibody from BD Pharmingen [#558389] and 1.2 nM LANCE EU-W1024 labeled anti-mouse IgG antibody [Perkin-Elmer, product no. AD0077]) in an aqueous EDTA-solution (100 mM EDTA, 0.2% (w/v) bovine serum albumin in 100 mM HEPES pH 7.5).
The resulting mixture was incubated 1 h at 22° C. to allow the formation of complex between the phosphorylated biotinylated peptide and the detection reagents. Subsequently the amount of phosphorylated substrate was evaluated by measurement of the resonance energy transfer from the Eu-chelate to the streptavidine-XL. Therefore, the fluorescence emissions at 620 nm and 665 nm after excitation at 350 nm was measured in a HTRF reader, e.g. a Rubystar (BMG Labtechnologies, Offenburg, Germany) or a Viewlux (Perkin-Elmer). The ratio of the emissions at 665 nm and at […] was taken as the measure for the amount of phosphorylated substrate. The data were normalised (enzyme reaction without inhibitor=0% inhibition, all other assay components but no enzyme=100% inhibition).

| Compound | IC50 (B16F10 cells; Mus musculus, B16-F10, 96 h) | IC50 (CDK9/CycT1) | Selectivity high ATP CDK9 over high ATP CDK2: IC50 (high ATP CDK2)/IC50 (high ATP CDK9) (CDK9/CycT1) | IC50 (B16F10 cells) |
| --- | --- | --- | --- | --- |
| C[S+]([O-])Cc1cc2nc(c1)OCCCOc1cc(F)ccc1-c1cc(ncc1F)N2 (racemic) [Example 4, (rac)-15,19-Difluoro-8-[(methylsulfinyl)methyl]-3,4-dihydro-2H,11H-10,6-(azeno)-12,16-(metheno)-1,5,11,13-benzodioxadiazacyclooctadecine] | 14 nM | 1.6 nM | 19.6 |  |
| CS(=N)(=O)Cc1cc2nc(c1)OCCCOc1cc(F)ccc1-c1cc(ncc1F)N2 (racemic) [Example 5, (rac)-15,19-Difluoro-8-[(S-methylsulfonimidoyl)methyl]-3,4-dihydro-2H,11H-10,6-(azeno)-12,16-(metheno)-1,5,11,13-benzodioxadiazacyclooctadecine] | 4 nM | 0.98 nM | 20.8 |  |
| C[S+]([O-])Cc1cc2nc(c1)OCCOc1cc(F)ccc1-c1cc(ncc1F)N2 (racemic) [Example 10, (rac)-14,18-difluoro-7-[(methylsulfinyl)methyl]-2,3-dihydro-10H-9,5-(azeno)-11,15-(metheno)-1,4,10,12-benzodioxadiazacycloheptadecine] | 410 nM | 27.8 nM | 125.7 |  |
| CS(=N)(=O)Cc1cc2nc(c1)OCCOc1cc(F)ccc1-c1cc(ncc1F)N2 (racemic) [Example 11, (rac)-14,18-difluoro-7-[(S-methylsulfonimidoyl)methyl]-2,3-dihydro-10H-9,5-(azeno)-11,15-(metheno)-1,4,10,12-benzodioxadiazacycloheptadecine] | 200 nM | 3 nM | 702 |  |
| C[S+]([O-])Cc1cc2nc(c1)OCCCCOc1cc(F)ccc1-c1cc(ncc1F)N2 (racemic) [Example 13, (rac)-16,20-difluoro-9-[(methylsulfinyl)methyl]-2,3,4,5-tetrahydro-12H-11,7-(azeno)-13,17-(metheno)-1,6,12,14-benzodioxadiazacyclononadecine] | 30 nM | 3.2 nM | 35.3 |  |
| CS(=N)(=O)Cc1cc2nc(c1)OCCCCOc1cc(F)ccc1-c1cc(ncc1F)N2 (racemic) [Example 14, (rac)-16,20-difluoro-9-[(S-methylsulfonimidoyl)methyl]-2,3,4,5-tetrahydro-12H-11,7-(azeno)-13,17-(metheno)-1,6,12,14-benzodioxadiazacyclononadecine] | 22 nM | 3.6 nM | 45.3 |  |
| CS(=N)(=O)Cc1cc2cc(c1)OCCCOc1cc(F)ccc1-c1nc(ncc1F)N2 (racemic) [Example 15, (rac)-15,19-difluoro-8-[(S-methylsulfonimidoyl)methyl]-3,4-dihydro-2H,11H-12,16-(azeno)-10,6-(metheno)-1,5,11,13-benzodioxadiazacyclooctadecine] | 23 nM | 1.9 nM | 123.6 |  |
| CS(=O)(Cc1cc2cc(c1)OCCCOc1cc(F)ccc1-c1nc(ncc1F)N2)=NC(=O)C(F)(F)F (racemic) [Example 16, (rac)-N-[{[15,19-difluoro-3,4-dihydro-2H,11H-12,16-(azeno)-10,6-(metheno)-1,5,11,13-benzodioxadiazacyclooctadecin-8-yl]methyl}(methyl)oxido-λ^6-sulfanylidene]-2,2,2-trifluoroacetamide] | 18 nM | 3.9 nM | 172 |  |
| CS(=N)(=O)Cc1cc2nc(c1)OCCCOc1cc(F)ccc1-c1cc(ncc1F)N2 (single isomer, unassigned; enantiomer 1) [Example 6, 15,19-Difluoro-8-[(S-methylsulfonimidoyl)methyl]-3,4-dihydro-2H,11H-10,6-(azeno)-12,16-(metheno)-1,5,11,13-benzodioxadiazacyclooctadecine; Enantiomer 1] | 7 nM | 1.1 nM | 35.4 |  |
| CS(=N)(=O)Cc1cc2nc(c1)OCCCOc1cc(F)ccc1-c1cc(ncc1F)N2 (single isomer, unassigned; enantiomer 2) [Example 7, 15,19-Difluoro-8-[(S-methylsulfonimidoyl)methyl]-3,4-dihydro-2H,11H-10,6-(azeno)-12,16-(metheno)-1,5,11,13-benzodioxadiazacyclooctadecine; Enantiomer 2] |  | 2.6 nM | 19.5 | 7 nM |
| CSCc1cc2cc(c1)OCCCOc1cc(F)ccc1-c1nc(ncc1F)N2 [Example 2, 15,19-Difluoro-8-[(methylsulfanyl)methyl]-3,4-dihydro-2H,11H-12,16-(azeno)-10,6-(metheno)-1,5,11,13-benzodioxadiazacyclooctadecine] | 167 nM | 4.3 nM | 149.6 |  |
| CSCc1cc2nc(c1)OCCCOc1cc(F)ccc1-c1cc(ncc1F)N2 [Example 3, 15,19-Difluoro-8-[(methylsulfanyl)methyl]-3,4-dihydro-2H,11H-10,6-(azeno)-12,16-(metheno)-1,5,11,13-benzodioxadiazacyclooctadecine] | 81 nM | 4.6 nM | 28.2 |  |
| CS(=O)(=O)Cc1cc2nc(c1)OCCCOc1cc(F)ccc1-c1cc(ncc1F)N2 [Example 8, 15,19-difluoro-8-[(methylsulfonyl)methyl]-3,4-dihydro-2H,11H-10,6-(azeno)-12,16-(metheno)-1,5,11,13-benzodioxadiazacyclooctadecine] | 9 nM | 2.3 nM | 14.9 |  |
